Where a SMILES comes first, the peptide text is derived from it. Bridges are numbered along the chain shown (N, C = ends). [ ]: non-standard residue; d: D form. The star is where a group is joined. hPhe(3,5-F2-4-CF3) = N[C@@H](CCc1cc(F)c(C(F)(F)F)c(F)c1)C(=O)O; hPhe(3-Cl-4-CF3) = N[C@@H](CCc1ccc(C(F)(F)F)c(Cl)c1)C(=O)O; NPrPhe(4-CF3) = CCCN[C@@H](Cc1ccc(C(F)(F)F)cc1)C(=O)O; NMeAbu(4,4,4-F3) = CN[C@@H](CC(F)(F)F)C(=O)O; NMeGly(cPent) = CN[C@H](C(=O)O)C1CCCC1; Hyp = O=C(O)[C@@H]1C[C@@H](O)CN1; αMeF = C[C@](N)(Cc1ccccc1)C(=O)O; NMeD = CN[C@@H](CC(=O)O)C(=O)O; NMeL = CN[C@@H](CC(C)C)C(=O)O; Morpholide = C1CN(*)CCO1; NMeA = CN[C@@H](C)C(=O)O; Ac5c = NC1(C(=O)O)CCCC1; Aze = O=C(O)[C@@H]1CCN1; Sar = CNCC(=O)O

Assay [1] deals with GDP-bound HRAS wild-type protein (Homo sapiens, UniProt P01112). The experiment in a line: Binding to HRAS by surface plasmon resonance (SPR), Single Cycle Kinetics. Particulars: SPR. On the technique in general: In SPR one partner is held on a chip, and binding of the other changes the refractive index at the surface.
Assay [2] has as its target GDP-bound NRAS wild-type protein (Homo sapiens, UniProt P01111). The experiment in a line: Binding to NRAS by surface plasmon resonance (SPR), Single Cycle Kinetics. Particulars: SPR.
[3] abbreviates: KD ratio, GDP-bound HRAS wild-type vs GDP-bound KRAS wild-type.
Setting [4] is: KD ratio, GDP-bound NRAS wild-type vs GDP-bound KRAS wild-type.

Sequence of GDP-bound HRAS wild-type protein (P01112 whole entry): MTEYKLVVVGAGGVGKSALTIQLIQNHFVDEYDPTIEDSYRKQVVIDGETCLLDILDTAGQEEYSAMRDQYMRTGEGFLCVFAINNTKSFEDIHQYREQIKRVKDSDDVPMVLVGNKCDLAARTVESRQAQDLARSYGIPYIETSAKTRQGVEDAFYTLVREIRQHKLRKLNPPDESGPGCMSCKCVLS
Sequence of GDP-bound NRAS wild-type protein (P01111 whole entry): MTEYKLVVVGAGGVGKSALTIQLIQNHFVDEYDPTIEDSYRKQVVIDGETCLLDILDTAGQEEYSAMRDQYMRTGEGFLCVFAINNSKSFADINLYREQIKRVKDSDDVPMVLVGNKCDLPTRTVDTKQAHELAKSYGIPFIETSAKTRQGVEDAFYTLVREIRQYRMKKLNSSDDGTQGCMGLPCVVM

As to `CCCN1C(=O)CN(C)C(=O)CN(C)C(=O)[C@H]([C@@H](C)CC)NC(=O)[C@H](CC(C)C)N(C)C(=O)C[C@@H](C(=O)N(C)C)N(C)C(=O)[C@H](C2CCCC2)N(C)C(=O)[C@](C)(Cc2ccccc2)NC(=O)[C@@H]2CCCN2C(=O)[C@H](CCc2cc(F)c(C(F)(F)F)c(F)c2)NC(=O)CN(C)C(=O)[C@@H]1Cc1ccc(C(F)(F)F)cc1` [PP0740] ([NMeL]I[Sar][Sar][NPrPhe(4-CF3)][Sar][hPhe(3,5-F2-4-CF3)]P[αMeF][NMeGly(cPent)][NMeD]-NMe2; lactam N-11), the “HRAS/KRAS (ratio of KD value with respect to GDP-bound HRAS wild-type protein to KD value with respect to KRAS)” value in assay [1] was “C (A compound having a KD ratio of 0.1 or more and less than 3 is denoted as C)”. In addition, in assay [2], the “NRAS/KRAS (ratio of KD value with respect to GDP-bound NRAS wild-type protein to KD value with respect to KRAS)” value is “B (a compound having 3 or more and less than 10 is denoted as B)”.
On to `CCO[C@@H]1C[C@H]2C(=O)NC3(CCCC3)C(=O)N(C)[C@@H](C3CCCC3)C(=O)N(C)[C@H](C(=O)N(C)C)CC(=O)N(C)[C@@H](CC)C(=O)N[C@@H]([C@@H](C)CC)C(=O)N(C)CC(=O)N(C)[C@H]3CC(C)=CCN(C3=O)[C@@H](Cc3ccc(C(F)(F)F)cc3)C(=O)N(C)CC(=O)N[C@@H](CCc3cc(F)c(C(F)(F)F)c(F)c3)C(=O)N2C1` [PP1036], for which the “HRAS/KRAS (ratio of KD value with respect to HRAS to KD value with respect to KRAS)” value in assay [1] (setting [3]) was “C (A compound having a KD ratio of 0.1 or more and less than 3 is denoted as C)”. In assay [2] (setting [4]), the “NRAS/KRAS (ratio of KD value with respect to NRAS to KD value with respect to KRAS)” value is “C (A compound having a KD ratio of 0.1 or more and less than 3 is denoted as C)”.
Consider `CCO[C@@H]1C[C@H]2C(=O)NC3(CCC3)C(=O)N(C)[C@@H](CC(C)C)C(=O)N(C)[C@H](C(=O)N(C)C)CC(=O)N(C)[C@@H](CC)C(=O)N[C@@H]([C@@H](C)CC)C(=O)N(C)CC(=O)N(C)[C@H]3C/C=C\CCN(C3=O)[C@@H](Cc3ccc(C(F)(F)F)cc3)C(=O)N(C)CC(=O)N[C@@H](CCc3cc(F)c(C(F)(F)F)c(F)c3)C(=O)N2C1` [PP1089], for which the “HRAS/KRAS (ratio of KD value with respect to HRAS to KD value with respect to KRAS)” value in assay [1] (setting [3]) is “A (a compound having 10 or more and less than 20 is denoted as A)”. In addition, the “NRAS/KRAS (ratio of KD value with respect to NRAS to KD value with respect to KRAS)” value in assay [2] (setting [4]) is “AA (a compound having 20 or more is denoted as AA)”.
`CCCN1C(=O)CN(C)C(=O)[C@@H]2CCN2C(=O)[C@H]([C@@H](C)CC)NC(=O)[C@H](CC(C)C)N(C)C(=O)C[C@@H](C(=O)N2CCOCC2)N(C)C(=O)[C@H](CC(F)(F)F)N(C)C(=O)C2(CCCC2)NC(=O)[C@@H]2CCCN2C(=O)[C@H](CCc2cc(F)c(C(F)(F)F)c(F)c2)NC(=O)CN(C)C(=O)[C@@H]1Cc1ccc(C(F)(F)F)cc1` [PP0784] ([NMeL]I[Aze][Sar][NPrPhe(4-CF3)][Sar][hPhe(3,5-F2-4-CF3)]P[Ac5c][NMeAbu(4,4,4-F3)][NMeD]-Morpholide; lactam N-11): the “HRAS/KRAS (ratio of KD value with respect to GDP-bound HRAS wild-type protein to KD value with respect to KRAS)” value in assay [1] is “B (a compound having 3 or more and less than 10 is denoted as B)”. Besides, in assay [2], the “NRAS/KRAS (ratio of KD value with respect to GDP-bound NRAS wild-type protein to KD value with respect to KRAS)” value was “B (a compound having 3 or more and less than 10 is denoted as B)”.
Take `CC[C@H](C)[C@@H]1NC(=O)[C@H](CC)N(C)C(=O)C[C@@H](C(=O)N(C)C)N(C)C(=O)[C@H](C2CCCC2)N(C)C(=O)C2(CCC2)N(C)C(=O)[C@@H]2CCCN2C(=O)[C@H](CCc2cc(F)c(C(F)(F)F)c(F)c2)NC(=O)CN(C)C(=O)[C@H](Cc2ccc(C)cc2)N2CC/C=C\C[C@@H](C2=O)N(C)C(=O)[C@@H]2CCCN2C1=O` [PP1786]: the “HRAS/KRAS (ratio of KD value for HRAS to KD value for KRAS)” value in assay [1] (setting [3]) was “B (a compound having 3 or more and less than 10 is denoted as B)”. Also, the “NRAS/KRAS (ratio of KD value for NRAS to KD value for KRAS)” value in assay [2] (setting [4]) was “A (a compound having 10 or more and less than 20 is denoted as A)”.
As to `CCCN1C(=O)CN(C)C(=O)CN(C)C(=O)[C@H]([C@@H](C)CC)NC(=O)[C@H](CC(C)C)N(C)C(=O)C[C@@H](C(=O)N2CCOCC2)N(C)C(=O)[C@H](C2CCCC2)N(C)C(=O)C2(CCCC2)NC(=O)[C@@H]2C[C@@H](OC)CN2C(=O)[C@H](CCc2ccc(C(F)(F)F)c(Cl)c2)NC(=O)CN(C)C(=O)[C@@H]1Cc1ccc(C(F)(F)F)cc1` [PP0262] ([NMeL]I[Sar][Sar][NPrPhe(4-CF3)][Sar][hPhe(3-Cl-4-CF3)][Hyp](Me)[Ac5c][NMeGly(cPent)][NMeD]-Morpholide; lactam N-11), the “HRAS/KRAS (ratio of KD for GDP-bound HRAS wild-type to KD for KRAS)” value in assay [1] was “B (a compound having 3 or more and less than 10 is denoted as B)”. Also, the “NRAS/KRAS (ratio of KD for GDP-bound NRAS wild-type to KD for KRAS)” value in assay [2] is “B (a compound having 3 or more and less than 10 is denoted as B)”.
For the molecule `CCCN1C(=O)[C@@H]2CCN2C(=O)[C@H](C)N(C)C(=O)[C@H]([C@@H](C)CC)NC(=O)[C@H](CC(C)C)N(C)C(=O)C[C@@H](C(=O)N(C)C)N(C)C(=O)[C@H](C2CCCC2)N(C)C(=O)C2(CCCC2)NC(=O)[C@@H]2CCCN2C(=O)[C@H](CCc2ccc(C(F)(F)F)c(Cl)c2)NC(=O)CN(C)C(=O)[C@@H]1Cc1ccc(C(F)(F)F)cc1` [PP0178] ([NMeL]I[NMeA][Aze][NPrPhe(4-CF3)][Sar][hPhe(3-Cl-4-CF3)]P[Ac5c][NMeGly(cPent)][NMeD]-NMe2; lactam N-11), the “HRAS/KRAS (ratio of KD for GDP-bound HRAS wild-type to KD for KRAS)” value in assay [1] was “B (a compound having 3 or more and less than 10 is denoted as B)”. Besides, the “NRAS/KRAS (ratio of KD for GDP-bound NRAS wild-type to KD for KRAS)” value in assay [2] is “C (A compound having a KD ratio of 0.1 or more and less than 3 is denoted as C)”.

The record behind these values is patent publication US20250230193A1, “CYCLIC COMPOUND HAVING SELECTIVE KRAS INHIBITORY EFFECT ON HRAS AND NRAS” (CHUGAI SEIYAKU KABUSHIKI KAISHA, priority 2022, published 2025).
